Several values for one entry are separate records, joined by “and”; a condition that tells them apart may be missing. Identical values can stand only once. Like-named read-outs stand apart in the source and are kept apart here.
Columns and labels:
[1] = system: HCV subgenomic RNA replicon in Huh7 cells; experiment: HCV subgenomic RNA replicon assay (Replicon Assay), TaqMan RT-PCR of replicon RNA after 48 h treatment; format: cell-based, hepatitis C virus (HCV); conditions: for Inhibition of replicon RNA accumulation: 48 hour treatment
Excerpt: The Replicon Assay measures the amount of HCV subgenomic RNA (replicon RNA) remaining in replicon cells (Lohman et al. Science 285:110-113 (1999)) after two days of drug treatment relative to the amount of replicon RNA in untreated cells. In this assay, the potency of compounds as HCV antiviral drugs is directly proportional to the level of inhibition of replicon RNA accumulation.
The Replicon Assay employing a cell line containing the self-replicating HCV subgenomic RNA (replicon) is described in Lohmann et al. Science 285:110-113 (1999). The Genbank accession number for the sequence of the replicon used in the experiments described herein is listed in this reference as AJ242654. This paper discloses methods for in vitro transcription of RNA from the replicon cDNA, transfection of the replicon RNA into Huh7 cells by electroporation, and selection of cells containing the replicon RNA using the antibiotic G418. Huh7 cells are a hepatoma cell line obtained from Dr. William Mason at Fox Chase Cancer Research Center (Philadelphia). These cells are publicly available from Fox Chase, and have been extensively described in the scientific literature (Nakabayashi at al. Cancer Res. 42:3858-3863 (1982)). In the experiments described herein, all of the template DNA is removed from the in vitro transcribed replicon RNA preparation prior to electroporation of this RNA into Huh7 cells by multiple treatment with DNase (three sequential treatments).
The Replicon Assay is performed as described in detail below. Briefly, Replicon cells are placed in 96 well trays at a density of 10,000 cells per well and incubated 37° C. The cells are incubated in DMEM ([…]) supplemented with 10% fetal bovine serum, glutamine, nonessential amino acids, and the antibiotic G418 (0.25 mg/ml). […] Each compound is tested at six to eight different concentrations. […] Each HCV serine protease inhibitor concentration is tested without any added interferon, as well as with the addition of six to eight different interferon doses. Similarly, interferon is tested without any added HCV serine protease inhibitor. After a 48-hour incubation with the compounds, the medium is removed from the plates, and total cellular RNA is extracted from the cells using the RNeasy-96 kit manufactured by Qiagen Inc. (Valencia, Calif.). This RNA is then analyzed by quantitative RT-PCR, or TaqMan® (Applied Biosystems, Foster City Calif.). The TaqMan® RT-PCR target is the neomycin resistance gene in the replicon RNA. The plates are configured so that there are 5 replicates of each drug treatment sample, and 16 replicates of the untreated samples. This permits greater statistical confidence in the quantitative RT-PCR data.
Analysis of the Replicon Assay data yields two values that are useful in assessing the potency of potential HCV antiviral agents. At each compound concentration tested, the level of inhibition in replicon RNA accumulation caused by the compound during two days of treatment relative to the amount of replicon RNA in untreated cells is determined. This is reported as percent inhibition. […] The IC50 is the value used to rank individual compounds tested in this assay based on their potency as HCV antiviral agents. Simple IC50 determinations are inadequate to assess the utility of compounds used in combination.
The Replicon Assay is used to measure the capacity of potential HCV antiviral compounds to inhibit the accumulation of a HCV subgenomic RNA replicon molecule in a Huh7 cell line (Lohmann et al. Replication of Subgenomic Hepatitis C Virus RNAs in a Hepatoma Cell Line. Science 285, 110-113 (1999)).

[2] = XTT metabolic assay to determine replicon cell viability; conditions: human
Excerpt: (§1) Inflamation Research. […] It is assumed that the level of GAPDH mRNA, which is a constitutively expressed housekeeping gene, is the same in all viable cells. […] Thus, it is postulated, as done by others using TaqMan® technology to determine the levels of particular mRNAs in human cells, that GAPDH mRNA levels are proportional to viable cell numbers (VCN) in any given sample, with the relationship of VCN=2^̂(40−CtGAPDH mRNA). The VCN is computed for each of the Replicon Assay sample wells, and then we divide the HCV Replicon RNA copy number for a specific well by the VCN for that well. Once computed, this ratio is used instead of the HCV copy number to compute inhibition (“Avg. Inh using ratio”; FIG. 14A). […] In the Replicon Assay, it is assumed that the measured inhibition of HCV RNA replicon accumulation is the sum of the actual inhibition of HCV RNA replicon accumulation and the apparent inhibition of HCV RNA replicon accumulation due to cytoxicity. […] Thus, the true anti-HCV activity of a compound in the Replicon Assay corrected for general cytotoxicity can be estimated by dividing the number of HCV replicon RNA molecules measured in each sample by the VCN, thus normalizing to the number of viable cells in each sample. […] In FIG. 14A, “Avg.

[3] = system: replicon cells (glyceraldehyde-3-phosphate dehydrogenase (GAPDH) mRNA levels); experiment: TaqMan quantitative RT-PCR of GAPDH mRNA levels in treated versus untreated replicon cells (cytotoxicity measure); conditions: treated versus untreated cells in the Replicon Assay
Excerpt: as §1

[4] = Hepatitis C virus, Huh-7, 48 h, read-out: IC50 HSPI, antiviral compound used individually, HCV replicon RNA accumulation, 48 h, response-surface fit (Ribavirin corrected for cytotoxicity)
[5] = read-out: IC50 HSPI, antiviral compound used individually, HCV replicon RNA accumulation, 48 h, response-surface fit (Ribavirin corrected for cytotoxicity)

For CCC[C@H](NC(=O)[C@@H]1[C@H]2CCC[C@H]2CN1C(=O)[C@@H](NC(=O)[C@@H](NC(=O)c1cnccn1)C1CCCCC1)C(C)(C)C)C(=O)C(=O)NC1CC1 [Compound CU], the “Inhibition of replicon RNA accumulation” value ([1]; Compound CU 0.0123 μM alone (interferon-alpha 2B 0 U)) was 5%, the “Inhibition of replicon RNA accumulation” value ([1]; Compound CU 0.0370 μM alone (interferon-alpha 2B 0 U)) was 8% and the “Inhibition of replicon RNA accumulation” value ([1]; Compound CU 0.1111 μM alone (interferon-alpha 2B 0 U)) was 11%. For the same compound, the “Inhibition of replicon RNA accumulation” value ([1]; Compound CU 0.333 μM alone (interferon-alpha 2B 0 U)) was 28%, the “Inhibition of replicon RNA accumulation” value ([1]; Compound CU 1 μM alone (interferon-alpha 2B 0 U)) was 88% and the “Inhibition of replicon RNA accumulation” value ([1]; Compound CU 3 μM alone (interferon-alpha 2B 0 U)) was 98%. The IC50 ([1]; Hepatitis C virus, Huh-7, 48 h, Compound CU as single drug treatment, initial experiment, replicon RNA accumulation 48 h) was 0.48 µM, the IC50 [1, 4] was 0.469 µM and the IC50 [1, 5] was 0.446 µM and 0.587 µM and 0.633 µM and 0.605 µM and 0.466 µM. For the same compound, the CC50 ([2]; HCV replicon cells (Huh7)) was 64.7 µM.

Work on CCC[C@H](NC(=O)C1[C@H]2CCC[C@H]2CN1C(=O)[C@@H](NC(=O)[C@@H](NC(=O)[C@@H](C)NC(=O)OC)C1CCCCC1)C(C)(C)C)C(=O)C(=O)NC1CC1 (stereo partly shown) [Compound EC] yielded an IC50 [1, 4] of 0.384 µM, an IC50 [1, 5] of 0.312 µM and a CC50 ([2]; HCV replicon cells (Huh7)) greater than 50 µM.

For CCC[C@@H](NC(=O)[C@@H]1[C@H]2CCCC2CN1C(=O)[C@@H](NC(=O)[C@H](NC(=O)c1cnccn1)C1CCCCC1)[C@H](C)CC)C(=O)C(=O)NC1CC1 (stereo partly shown) [Compound EP], the IC50 [1, 4] was 0.426 µM and the CC50 [2] was greater than 10 µM.

For NC(=O)c1ncn([C@@H]2O[C@H](CO)[C@@H](O)[C@H]2O)n1 [Ribavirin, reference compound], the IC50 [1, 4] was 145 µM, the IC50 ([1]; Hepatitis C virus, Huh-7, read-out: uncorrected IC50 (Avg. Inh original), not corrected for cytotoxicity) was roughly 80 µM and the “reduction of accumulation of HCV replicon RNA (in words)” value ([1]; compound alone) was “marginally effective”. The “cytotoxicity (GAPDH mRNA levels, TaqMan RT-PCR)” value [3] was “significant Ribavirin-induced cytotoxicity”.
